# Where two headings read alike, the source gives them in different places.
# Tests used:
# HBV = assay: Anti-HBV activity in HepG2.2.15 cells (HBV DNA in culture medium by qPCR); type: cell-based; conditions: HepG2.2.15 cells, 6 days treatment, HBV DNA in culture medium quantified by real-time PCR, read-out: EC50
# In short: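 HepG2.2.15 cells in 2% FBS medium at 37 °C were treated with compounds for 6 days, with medium and compound refreshed at day 3; 1:3 dilutions, 8 concentrations in triplicate, top 10 or 1 uM. HBV DNA in culture medium quantified by qPCR to derive EC50; CC50 from parallel plates (top 100 uM).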
# [1] = Cytotoxicity determination in HepG2.2.15 cells (CCK-8 cell viability); type: cell-based; conditions: human, 6 days treatment, CCK-8 assay, highest concentration 100 uM
# In short: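 HepG2.2.15 cells seeded at 5,000 cells/well in 2% FBS medium, exposed 6 days to compounds (8-point 1:3 dilutions from 100 uM, triplicate), refreshed at day 3. Viability read by CCK-8 after 2.5 h at 37° C, absorbance 450 nm with 630 nm reference; CC50 calculated.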
# [2] = Hepatitis B virus, HepG2.2.15, 144 h
SMILES,EC50 (HBV; [2]) [µM],CC50 at 6 days [1] [µM],EC50 (HBV) [µM]
"CCOC(=O)C1=C(CN2CC(F)(F)[C@H]3[C@@H]2CCN3[C@@H](C)CC(C)(C)C(=O)O)NC(c2nccs2)=N[C@H]1c1cccc(F)c1C (single isomer, unassigned) [Compound 105B]",0.108,94.3,–
"CCOC(=O)C1=C(CN2CC(F)(F)[C@H]3[C@@H]2CCN3CC(C)(C)C(=O)O)NC(c2nccs2)=N[C@@H]1c1cccc(O)c1C (single isomer, unassigned) [Compound 106, (cis)-3-(4-((5-(ethoxycarbonyl)-6-(3-hydroxy-2-methylphenyl)-2-(thiazol-2-yl)-3,6-dihydropyrimidin-4-yl)methyl)-6,6-difluorohexahydropyrrolo[3,2-b]pyrrol-1(2H)-yl)-2,2-dimethylpropanoic acid]",0.02,39.5,–
"CCOC(=O)C1=C(CN2CC(F)(F)[C@H]3[C@@H]2CCN3CCC(C)(C)c2nnn[nH]2)NC(c2nccs2)=N[C@H]1c1cccc(F)c1C (single isomer, unassigned) [Compound 108]",0.0004,13.1,–
"CCOC(=O)C1=C(CN2CC(F)(F)[C@H]3[C@@H]2CCN3CC(C)(C)C(=O)NS(C)(=O)=O)NC(c2nccs2)=N[C@H]1c1cccc(F)c1C (single isomer, unassigned) [Compound 109]",< 0.001,7.3,–
"CCOC(=O)C1=C(CN2CC(F)(F)[C@H]3[C@@H]2CCN3CCOC(C)(C)C(=O)O)NC(c2nccs2)=N[C@H]1c1cccc(F)c1C (single isomer, unassigned) [Compound 111]",0.0078,33.4,–
"CCOC(=O)C1=C(CN2CC(F)(F)C3[C@@H]2CCN3[C@H]2C[C@](C)(C(=O)O)C2)NC(c2nccs2)=N[C@H]1c1cccc(F)c1C (single isomer, unassigned) [Compound 112A]",0.0046,28.7,–
"CCOC(=O)C1=C(CN2CC(F)(F)C3[C@@H]2CCN3[C@H]2C[C@@](C)(C(=O)O)C2)NC(c2nccs2)=N[C@H]1c1cccc(F)c1C (single isomer, unassigned) [Compound 112B]",0.0047,23.6,–
"CCOC(=O)C1=C(CN2CC(F)(F)C3[C@@H]2CCN3C2CC(C)(C(=O)O)C2)NC(c2nccs2)=N[C@H]1c1cccc(F)c1C (single isomer, unassigned) [Compound 112]",0.0053,28.6,–
"[H][C@]1(N2CC[C@H]3[C@@H]2C(F)(F)CN3CC2=C(C(=O)OCC)[C@H](c3cccc(F)c3C)N=C(c3nccs3)N2)C[C@@]2(C[C@@H](C(=O)O)C2)C1 (single isomer, unassigned) [Compound 113A]",0.005,> 3,–
"[H][C@]1(C(=O)O)C[C@@]2(C1)C[C@@]([H])(N1CC[C@H]3[C@@H]1C(F)(F)CN3CC1=C(C(=O)OCC)[C@H](c3cccc(F)c3C)N=C(c3nccs3)N1)C2 (single isomer, unassigned) [Compound 113B]",< 0.001,> 3.1,–
"CCOC(=O)C1=C(CN2CC(F)(F)[C@H]3[C@@H]2CCN3C2CC3(CC(C(=O)O)C3)C2)NC(c2nccs2)=N[C@H]1c1cccc(F)c1C (single isomer, unassigned) [Compound 113]",0.0022,12.5,–
"CCOC(=O)C1=C(CN2CC(F)(F)[C@H]3[C@@H]2CCN3C2CCC(C(=O)O)C2)NC(c2nccs2)=N[C@H]1c1cccc(F)c1C (single isomer, unassigned) [Compound 115]",0.0031,24,–
"CCOC(=O)C1=C(CN2CC(F)(F)[C@H]3[C@@H]2CCN3C[C@H]2C[C@@](C)(C(=O)O)C2)NC(c2nccs2)=N[C@H]1c1cccc(F)c1C (single isomer, unassigned) [Compound 116A]",0.0008,12.1,–
"CCOC(=O)C1=C(CN2CC(F)(F)[C@H]3[C@@H]2CCN3C[C@H]2C[C@](C)(C(=O)O)C2)NC(c2nccs2)=N[C@H]1c1cccc(F)c1C (single isomer, unassigned) [Compound 116B]",0.0025,10.6,–
"CCOC(=O)C1=C(CN2CC(F)(F)[C@H]3[C@@H]2CCN3CCC2(C(=O)O)CC2)NC(c2nccs2)=N[C@H]1c1cccc(F)c1C (single isomer, unassigned) [Compound 117]",< 0.0005,24.7,–
"CCOC(=O)C1=C(CN2CC(F)(F)[C@H]3[C@@H]2CCN3CCC(C)(C)C(=O)O)NC(c2nc(C)cs2)=N[C@H]1c1cccc(F)c1C (single isomer, unassigned) [Compound 118]",0.0054,12.7,–
"CCOC(=O)C1=C(CN2C[C@H](F)[C@H]3[C@@H]2CCN3CCC(C)(C)C(=O)O)NC(c2nccs2)=N[C@H]1c1cccc(F)c1C (single isomer, unassigned) [Compound 119]",0.0555,20.2,–
"[H][C@]1(N2CC[C@H]3[C@@H]2C(F)(F)CN3CC2=C(C(=O)OC)[C@H](c3cccc(F)c3F)N=C(c3nccs3)N2)C[C@@]2(C[C@@H](C(=O)O)C2)C1 (single isomer, unassigned) [Compound 120A]",0.012,28.1,–
"[H][C@]1(N2CC[C@H]3[C@@H]2C(F)(F)CN3CC2=C(C(=O)OC)[C@H](c3cccc(F)c3F)N=C(c3nccs3)N2)C[C@]2(C[C@@H](C(=O)O)C2)C1 (single isomer, unassigned) [Compound 120B]",–,19.9,0.013
"CCOC(=O)C1=C(CN2CC(F)(F)[C@H]3[C@@H]2CCN3C[C@@H](CC)C(=O)O)NC(c2nccs2)=N[C@@H]1c1ccc(F)nc1C (single isomer, unassigned) [Compound 122A, 2-(((cis)-4-((5-(ethoxycarbonyl)-6-(6-fluoro-2-methylpyridin-3-yl)-2-(thiazol-2-yl)-3,6-dihydropyrimidin-4-yl)methyl)-6,6-difluorohexahydropyrrolo[3,2-b]pyrrol-1(2H)-yl)methyl)butanoic acid]",0.006,> 100,–
"CCOC(=O)C1=C(CN2CC(F)(F)[C@H]3[C@@H]2CCN3[C@H]2C[C@@H](CC(=O)O)C2)NC(c2nccs2)=N[C@H]1c1cccc(F)c1C (single isomer, unassigned) [Compound 123A]",0.008,18.6,–
"CCOC(=O)C1=C(CN2CC(F)(F)[C@H]3[C@@H]2CCN3[C@H]2C[C@H](CC(=O)O)C2)NC(c2nccs2)=N[C@H]1c1cccc(F)c1C (single isomer, unassigned) [Compound 123B]",0.009,16.1,–
"CCOC(=O)C1=C(CN2CC(F)(F)[C@H]3[C@@H]2CCN3c2nc(C(=O)O)cs2)NC(c2nccs2)=N[C@H]1c1cccc(F)c1C (single isomer, unassigned) [Compound 124]",0.0242,7.7,–
"COC(=O)C1=C(CN2CC(F)(F)[C@H]3[C@@H]2CCN3CCC(C)(C)C(=O)O)NC(c2ncoc2C)=N[C@H]1c1ccc(F)cc1Cl (single isomer, unassigned) [Compound 125, 4-((cis)-4-((6-(2-chloro-4-fluorophenyl)-5-(methoxycarbonyl)-2-(5-methyloxazol-4-yl)-3,6-dihydropyrimidin-4-yl)methyl)-6,6-difluorohexahydropyrrolo[3,2-b]pyrrol-1(2H)-yl)-2,2-dimethylbutanoic acid]",0.0093,58.4,–
"COC(=O)C1=C(CN2CC(F)(F)[C@H]3[C@@H]2CCN3CCC(C)(C)C(=O)O)NC(c2nccs2)=N[C@H]1c1ccc(F)c(F)c1Cl (single isomer, unassigned) [Compound 126]",0.0034,27.2,–
